Test system: S. aureus 6
Assay: In vitro antimicrobial activity (two-fold agar-plate dilution method)
Format: cell-based
Settings: Staphylococcus aureus, heart infusion agar (HI-agar), 10^6 viable cells per ml, 37° C., 20 hours, read-out: MIC (minimal inhibitory concentration)
Protocol: In vitro Antimicrobial Activity was determined by the two-fold agar-plate dilution method as described below.
One loopful of an overnight culture of a test strain in Trypticase-soy broth (10^6 viable cells per ml) was streaked on heart infusion agar (HI-agar) containing graded concentrations of the test compound, and the minimal inhibitory concentration (MIC) was expressed in terms of μg/ml after incubation at 37° C. for 20 hours.

Work on `C[C@@H](O)[C@H]1C(=O)N2C(C(=O)O)=C(C3CN=CNC3)C[C@H]12` (stereo partly drawn) [Example 1, [5R,6S)-6-[(R)-1-hydroxyethyl]-3-[3,4,5,6-tetrahydropyrimidin-5-yl]-7-oxo-1-azabicyclo[3.2.0]hept-2-ene-2-carboxylic acid] yielded an MIC of at most 0.025 µg/mL.
